US12351574B2, “Selective ligands for modulation of GIRK channels” (Northeastern University, priority 2018, dated 2025)

Legend:
[1] = target: T1, GIRK1/2(V-T) (UniProt P48542+P48549, V99T); test: TEVC in Xenopus oocytes, single mutant GIRK1/2(V-T); format: cell-based, human GIRK1, mouse GIRK2; settings: GIRK1/2(V-T) single mutant
T1 construct: expressed in transfected cells; host or cells: Xenopus laevis oocytes (cRNA injection)
T1 sequence (P48549 1-501): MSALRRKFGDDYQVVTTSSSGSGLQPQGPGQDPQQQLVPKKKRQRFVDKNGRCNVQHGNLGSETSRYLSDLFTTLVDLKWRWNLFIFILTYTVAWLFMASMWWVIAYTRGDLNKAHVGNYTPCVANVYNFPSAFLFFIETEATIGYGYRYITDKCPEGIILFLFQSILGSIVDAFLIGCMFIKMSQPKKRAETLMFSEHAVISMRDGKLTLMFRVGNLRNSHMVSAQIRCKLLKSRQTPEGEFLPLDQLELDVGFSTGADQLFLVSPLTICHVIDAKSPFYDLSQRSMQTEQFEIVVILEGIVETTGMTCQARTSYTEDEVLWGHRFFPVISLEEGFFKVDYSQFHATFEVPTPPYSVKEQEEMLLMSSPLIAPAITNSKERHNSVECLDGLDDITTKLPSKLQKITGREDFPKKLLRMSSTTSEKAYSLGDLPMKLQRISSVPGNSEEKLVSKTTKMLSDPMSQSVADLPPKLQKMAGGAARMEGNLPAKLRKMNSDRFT
T1 sequence (P48542 1-425 V99T): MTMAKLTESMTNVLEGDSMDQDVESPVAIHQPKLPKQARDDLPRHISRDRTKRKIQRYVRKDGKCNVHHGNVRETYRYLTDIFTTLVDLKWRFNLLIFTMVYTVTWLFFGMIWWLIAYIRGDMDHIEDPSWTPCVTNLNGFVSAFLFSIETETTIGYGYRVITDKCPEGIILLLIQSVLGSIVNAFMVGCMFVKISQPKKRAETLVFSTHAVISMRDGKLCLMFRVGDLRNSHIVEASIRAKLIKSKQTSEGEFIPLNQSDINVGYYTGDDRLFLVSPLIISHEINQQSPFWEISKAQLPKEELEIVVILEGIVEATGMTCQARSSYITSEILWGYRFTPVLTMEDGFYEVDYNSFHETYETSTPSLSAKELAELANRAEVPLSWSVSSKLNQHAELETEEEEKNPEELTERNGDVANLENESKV
Description: Molecular biology: For Xenopus oocyte expression, human GIRK1 and human GIRK4 cDNAs were subcloned into pGEMHE. For mammalian expression, human GIRK1 and human GIRK4 cDNAs were subcloned into pcDNA3 and pcDNA3.1/V5-His B, respectively (Invitrogen). Mouse GIRK2 cDNA was subcloned in the dual-function vector, pXoom. Point mutations were introduced using a standard Pfu-based mutagenesis technique according to the QuikChange protocol (Agilent). Mutations were verified by sequencing.
Electrophysiology of oocytes: Whole-oocyte currents were measured by conventional two-electrode voltage clamp (TEVC) with a GeneClamp 500 amplifier (Axon Instruments). Agarose cushion microelectrodes were filled with 1.5% (w/v) agarose in 3 M KCl and were used with resistances between 0.1 and 1.5 megaohms. […] Barium-sensitive basal currents from both groups, 1) Vehicle, 2) single concentration at 10 μM and 3) multiple concentrations of ML297 or GAT compounds in the presence of HK solution, were assessed at −80 mV using TEVC. Barium-sensitive currents were normalized to average basal current in the vehicle solutions. The HK solution contained the following: 96 mM KCl, 1 mM NaCl, 1 mM MgCl2, 5 mM KOH/HEPES, pH 7.4. The barium solution consisted of HK+10 mM BaCl2. Five to ten oocytes from the same batch (same frog) were recorded for each group, and the experiments were repeated in at least four batches. Data acquisition and analysis were carried out using pClamp9 (Molecular Devices) and OriginPro (Microcal) software.
To test these computational predictions, the inventors mutated each or both of the two M1 key wild-type GIRK4 subunit residues to the corresponding GIRK2 residues (GIRK4-V92I, GIRK4-T94V, GIRK4-V92I/T94V or GIRK4-dm) and vice-versa the GIRK2 residues to the corresponding GIRK4 ones (GIRK2-I97V, GIRK2-V99T, GIRK2-I97V/V99T or GIRK2-dm) (FIG. 35). […]

[2] = system: right atrium of isolated Langendorff-perfused mouse heart; test: optical mapping of atrial action potential duration in isolated Langendorff-perfused mouse heart; settings: for atrial optical action potential duration 70% repolarization (APD70), quantification: 2.4 μM, 10 Hz stimulation, FIGS. 23A-23B, controls 23.93 (ML297) and 23.1 (GAT1508); for average APD70 of the map of the stimulated right atrium: 10 minutes after 2.4 μM, 10 Hz, FIG. 22, controls 23.9 (ML297) and 21.8 (GAT1508)
Description: Optical mapping studies in isolated hearts: Isolated hearts of C57BL/6 mice, four to six months of age, were retrogradely perfused with Tyrode's solution in the Langendorff mode. The preparations were maintained at 37° C., and stained with a bolus of a voltage sensitive dye (0.25 ml, 10 μM Di-4-ANEPPS, Molecular Probes) and imaged with a CCD camera (RedShirt Imaging), 80×80 pixels, 85 μm per pixel, and 1000 frames per second. […] A bipolar, silver tip stimulation electrode was used to pace the right atrium (2.5 5 ms pulses, 2× diastolic threshold) at 10 Hz using an AD Instrument stimulation platform. ML297 or GAT1508 at 2.4 μM were introduced into the perfusate. The action potential duration at 70% repolarization (APD70), was quantified as the inventors have done extensively.

Row | EC50 [1] | EMAX [1] | Emax ([1]; read-out: EMAX, % of the control GIRK1/2) | atrial optical action potential duration 70% repolarization (APD70), quantification [2] | average APD70 of the map of the stimulated right atrium [2] | SMILES
1 | 0.53 ± 0.07 µM | 1.92±0.03 | 65% | 23.57 ms | 20.3 ms | Cc1cc(NC(=O)Nc2ccc(Br)s2)n(-c2ccccc2)n1 [GAT1508, 1-(5-bromothiophen-2-yl)-3-(3-methyl-1-phenyl-1H-pyrazol-5-yl)urea]
2 | – | – | – | 16.53 ms | 16 ms | Cc1cc(NC(=O)Nc2ccc(F)c(F)c2)n(-c2ccccc2)n1 [ML297, reference compound]
